What was measured:
[1] = biological target: T1, human 5-HT1AR stably expressed in HEK293 cells (Homo sapiens, UniProt P08908); experiment: Saturation binding of [3H]-8-OH-DPAT in the absence and presence of Zn; settings: Zn vs [3H]-8-OH-DPAT, nonlinear regression of saturation data, equation 1
T1 construct: The full-length human 5HTR1A complementary DNA (cDNA); membranes prepared from the cells
T1 sequence (P08908 1-422): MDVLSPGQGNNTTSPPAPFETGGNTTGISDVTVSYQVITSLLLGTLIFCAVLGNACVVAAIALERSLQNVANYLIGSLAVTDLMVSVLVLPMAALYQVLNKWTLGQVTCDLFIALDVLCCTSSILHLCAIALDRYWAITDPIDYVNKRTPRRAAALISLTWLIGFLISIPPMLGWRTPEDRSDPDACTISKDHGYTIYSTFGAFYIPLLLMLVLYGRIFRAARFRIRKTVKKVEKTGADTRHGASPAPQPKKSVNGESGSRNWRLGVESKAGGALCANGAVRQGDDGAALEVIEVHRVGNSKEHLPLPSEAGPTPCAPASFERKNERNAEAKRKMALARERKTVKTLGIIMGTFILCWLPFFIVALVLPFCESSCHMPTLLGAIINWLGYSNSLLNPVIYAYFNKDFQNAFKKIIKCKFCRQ
Procedure: (§1) The full-length human 5HTR1A complementary DNA (cDNA), which was cloned into the mammalian expression vector pcDNA3.1(+), was obtained from the Missouri S&T cDNA Resource Center (www.cdna.org). The receptor cDNA was stably transfected into human embryonic kidney cells (HEK293, ATCC) with the use of Lipofectamine 2000 (Invitrogen).
(§2) Cell pellets were thawed and homogenized in 20 volumes of 50 mM Tris–HCl buffer (pH 7.7) containing 0.1 mM EDTA and 10 mM MgCl2, using an Ultra Turrax tissue homogenizer. The pellets were then centrifuged twice at 35,000g for 20 min at 4 °C, with incubation for 15 min at 37 °C in between centrifugations. Membranes were aliquoted in tubes. Membrane protein concentrations were determined using the Pierce™ Coomassie (Bradford) Protein Assay Kit, with bovine serum albumin (BSA) as a standard.
(§3) The incubation buffer consisted of 50 mM Tris–HCl (pH 7.7), 10 mM MgCl2, 10 mM pargyline and 0.1 % ascorbic acid. Radioligand binding assays were performed by incubating 30 μg of protein of the membrane suspension in 96-well microtitre plates for 60 min at room temperature with shaking, in a total volume of 200 μl. The binding reactions were stopped by filtration through GF/C Unifilter plates using a harvester (PerkinElmer). The plate filters were dried, and 20 μl of Ultima Gold MV (PerkinElmer) was added. Radioactivity was measured using a MicroBeta TriLux counter (PerkinElmer).
All experiments were performed in triplicate, and the results were obtained from at least three independent experiments. The data are expressed as the mean±S.D. (standard deviation). The experimental data were analysed using GraphPad Prism 5.1 for Windows (GraphPad Software, San Diego California USA, www.graphpad.com).

[2] = biological target: T1, human 5-HT1AR stably expressed in HEK293 cells; experiment: Association and dissociation kinetic assays of [3H]-8-OH-DPAT; assay type: binding
Procedure: Non-specific binding was defined by the addition of 10 μM serotonin. The amount of radioligand bound to the receptor was measured at different time intervals during a total incubation of 60 min in the absence or presence of 10 and 500 μM ZnCl2. For the dissociation assay, after incubating the membranes with radioligand for 60 min to achieve equilibrium, serotonin (10 μM), either alone or together with 10 or 500 μM of ZnCl2, was added, and the specifically bound radioligand was measured after incubations of different durations (from 0 to 60 min), which were terminated by rapid filtration.

[3] = biological target: T1, human 5-HT1AR stably expressed in HEK293 cells; experiment: Competition and competition-like (Zn titration) binding against 2.5 nM [3H]-8-OH-DPAT; settings: 2.5 nM radioligand
Procedure: as §1, §2
as §3, with “The plate filters were dried, and 20 μl of Ultima Gold MV (PerkinElmer) was added.” left out

Sprague Dawley rats = experiment: Lower lip retraction (LLR) in rats; assay type: in vivo, rat; settings: for Mean LLR score (A) VEH: max score 3/rat
Procedure: The experiments were performed on male Albino Swiss mice (23-25 g) and Sprague Dawley rats (200-250 g) from Charles River, Germany as well as […]-flx-YFP mice from Jackson Labs, Bangor ME and the Hen lab, respectively. The animals were kept under standard laboratory conditions with respect to lighting (light phase 7:00-19:00) and temperature (19-21 °C). Food and water were freely available. Each experimental group consisted of eight to ten animals. All of the animals were experimentally naive and were used only once in each test. The experiments were performed during the light period (9:00-14:00 h). All of the procedures were conducted according to the guidelines of the National Institutes of Health Animal Care and Use Committee and were approved by the Ethics Committees of the Institute of Pharmacology, Polish Academy of Sciences in Krakow and the Animal Care Committee, University of Ottawa. […] Controls were treated with the appropriate diluent, which was indicated as VEH on the graphs and in the tables. LLR was assessed according to the method described by Berendsen et al., [20]. The rats were individually placed in cages (30×25×25 cm) and were scored three times, 15, 30 and 45 min after the administration of Zn as follows: 0=lower incisors not visible, 0.5=partly visible and 1=completely visible. Zn was administered at doses of 2 and 5 mg Zn/kg (given as Zn hydroaspartate, Farmapol, Poland). The maximum total score was 3/rat. In addition, the effects of Zn and WAY-100635 (0.1 mg/kg; […] Sigma) were tested.

[4] = design: method as in PMID 20617034; settings: cited from earlier work

For `[Zn+2]` [Zn, Zinc], the “cooperativity factor α” value [1] was 0.37, the “effect on association rate of [3H]-8-OH-DPAT” value ([2]; 10 μM of Zn ions) was “small increase in the association rate” and the “effect on association rate of [3H]-8-OH-DPAT” value ([2]; 500 μM Zn) was “no effect on the kon values”. The “effect on dissociation rate of [3H]-8-OH-DPAT” value ([2]; high Zn concentration (500 μM)) was “both phases were significantly reduced”, the “effect on dissociation rate of [3H]-8-OH-DPAT” value ([2]; low Zn concentration (10 μM)) was “disappearance of the fast radioligand dissociation rate” and the “increase of [3H]-8-OH-DPAT specific binding” value ([3]; 10 μM of Zn, bell-shaped titration curve) was ~ 25%. The “effect on [3H]-8-OH-DPAT specific binding” value ([3]; Zn at >100 μM) was “inhibition”, the “Mean LLR score (A) VEH” value (Sprague Dawley rats; Zn 2 mg Zn/kg i.p. alone) was 0.0±0.0 and the “Mean LLR score (B) 8-OH-DPAT 1 mg/kg” value (Sprague Dawley rats; Zn 2 mg/kg 45 min before 8-OH-DPAT 1 mg/kg) was 1.17±0.98. For the same compound, the “Mean LLR score (A) VEH” value (Sprague Dawley rats; Zn 5 mg Zn/kg i.p. alone) was 0.0±0.0, the “Mean LLR score (B) 8-OH-DPAT 1 mg/kg” value (Sprague Dawley rats; Zn 5 mg/kg 45 min before 8-OH-DPAT 1 mg/kg) was 0.46±0.75 and the “effect on LLR induced by 8-OH-DPAT (in words)” value (Sprague Dawley rats; Zn 2 and 5 mg/kg or WAY-100635 0.1 mg/kg before 8-OH-DPAT 1 mg/kg) was “blocked the LLR induced by 8-OH-DPAT”. The “induction of LLR (in words)” value (Sprague Dawley rats; given alone: 8-OH-DPAT 1 mg/kg, Zn 2 and 5 mg/kg, WAY-100635 0.1 mg/kg) was “did not evoke LLR” and the “extracellular Zn level reported as neurotoxic” value [4] was “over 300 μM”.

Source: publication PMC5104769, “Concentration-Dependent Dual Mode of Zn Action at Serotonin 5-HT1A Receptors: In Vitro and In Vivo Studies” (Molecular neurobiology, 2015)
